The values below come from ChEMBL document CHEMBL1201862, “PubChem BioAssay data set” (2004).

Holding throughout (assay): NCI tumour cell line growth inhibition, 48 h
The subject of assay [1] is 786-0.
Assay [2] concerns BT-549.
Assay [3] concerns CAKI-1.
The subject of assay [4] is CCRF-CEM.
Assay [5] concerns COLO 205.
The test system of assay [6] is EKVX.
In assay [7] the test system is HCC 2998.
In assay [8] the test system is HCT-116.
Assay [9] concerns HCT-15.
The test system of assay [10] is HOP-92.
Assay [11] has as its system HT-29.
The subject of assay [12] is IGROV-1.
Assay [13] concerns M14.
Assay [14] relates to MDA-MB-231.
The test system of assay [15] is MDA-MB-435.
The subject of assay [16] is OVCAR-4.
Assay [17] relates to PC-3.
Assay [18] concerns SK-MEL-5.
In assay [19] the test system is SK-OV-3.
In assay [20] the test system is MOLT-4.

“And” between values parts separate entries of the source, which are not always exact repeats. Equal entries are not always repeated.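 A five-concentration, 48-hour dose response in 96-well plates underlies each endpoint, interpolated linearly between surrounding concentrations. At the GI50, growth is halved.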 The source made the active and inactive calls. Cut-off read from the data, not from the text of the source: active = GI50 up to about 1.1 µM and inactive = higher.

For `CC1(COS(=O)(=O)OCC2(C)COS(=O)(=O)OC2)COS(=O)(=O)OC1`, the GI50 in [1] is > 50.8 µM (inactive); in assay [2], > 48.8 µM (inactive); in assay [3], > 100 µM (inactive); in assay [4], > 28.2 µM (inactive); in [5], > 51.6 µM (inactive); in assay [6] it was > 71.1 µM (inactive). Moreover, the GI50 is > 60.7 µM (inactive) in [7]; > 52.6 µM (inactive) in assay [8]; greater than 35.7 µM in assay [9]; 10.3 µM (inactive) in assay [10]; > 32.6 µM (inactive) in assay [11]; 39.2 µM (inactive) in assay [12]. In addition, the GI50 is > 51.4 µM (inactive) in assay [13]; > 73.6 µM (inactive) in assay [14]; > 41.2 µM (inactive) in assay [15]; > 60.8 µM (inactive) in assay [16]; > 29.6 µM (inactive) in assay [17]; > 69.2 µM (inactive) in assay [18]. Also, the GI50 in assay [19] was > 100 µM (inactive).

For `CC(C)C1OCC(CO)CO1` (centres undefined), the GI50 in assay [1] is > 100 µM (inactive); in [2], 31.6 µM (inactive); in assay [3] it was > 100 µM (inactive); in assay [4] it was > 100 µM (inactive); in assay [5], > 100 µM (inactive); in assay [6] it was > 100 µM (inactive). Further, the GI50 in [7] was > 100 µM (inactive); in [8], > 100 µM (inactive); in assay [9], greater than 100 µM; in assay [10], > 100 µM (inactive); in assay [11], > 100 µM (inactive); in [13] it was > 100 µM (inactive). Also, the GI50 in assay [14], in [15], in assay [20], in [16], in assay [17] and in assay [18] was > 100 µM (inactive) in each case. In assay [19], the GI50 is > 100 µM (inactive).

Turning to `C=C(CC[C@@H](C(=O)O)[C@H]1[C@H](O)C[C@@]2(C)C3=CC[C@@H](C(=C)C)[C@](C)(CCC(=O)O)C3=CC[C@]12C)C(C)C` [PORICOIC ACID A], the GI50 is 16.6 µM (inactive) in [1]; 18.5 µM (inactive) in [2]; 15.2 µM (inactive) in assay [3]; 29.6 µM (inactive) in assay [4]; 23.1 µM (inactive) in assay [5]; 17.6 µM (inactive) in assay [6]. The GI50 in assay [7] was 17.9 µM (inactive); in [8] it was 16.4 µM (inactive); in [9], 17.2 µM; in assay [10] it was 16.6 µM (inactive); in assay [11], 17.6 µM (inactive); in assay [13] it was 17.9 µM (inactive). The GI50 in [14] was 20.8 µM (inactive); in [15] it was 18.8 µM (inactive); in assay [20] it was 22.1 µM (inactive); in [16] it was 21.1 µM (inactive); in assay [17], 18.7 µM (inactive); in assay [18], 20.4 µM (inactive). Moreover, in assay [19], the GI50 is 18 µM (inactive).

`Cc1cn(C2CC(N(O)Cc3ccccc3)C(CO[Si](C)(C)C(C)(C)C)O2)c(=O)[nH]c1=O` (centres undefined): the GI50 in [1] is 17.4 µM (inactive) and 15.6 µM (inactive); in assay [2], 16.4 µM (inactive) and 16.3 µM (inactive); in assay [3] it was 17 µM (inactive) and 26.5 µM (inactive); in [4], 30.1 µM (inactive); in assay [5] it was 18.5 µM (inactive) and 20.9 µM (inactive); in assay [6], 25.4 µM (inactive) and 17.8 µM (inactive). The GI50 in [7] is 19.8 µM (inactive) and 16.7 µM (inactive); in assay [8], 16.2 µM (inactive) and 19.1 µM (inactive); in assay [9] it was 37.2 µM; in assay [10], 16 µM (inactive) and 18.7 µM (inactive); in assay [11] it was 17.3 µM (inactive) and 22.9 µM (inactive); in assay [12], 15.7 µM (inactive) and 25.5 µM (inactive). Also, the GI50 was 16.6 µM (inactive) and 19.5 µM (inactive) in assay [13]; 16.8 µM (inactive) and 16.5 µM (inactive) in assay [14]; 17.9 µM (inactive) and 18 µM (inactive) in assay [15]; 40.2 µM (inactive) and 57.3 µM (inactive) in assay [20]; 23.7 µM (inactive) and 17.4 µM (inactive) in assay [16]; 14.5 µM (inactive) and 22.6 µM (inactive) in [17]. The GI50 in assay [18] is 16.6 µM (inactive) and 18.8 µM (inactive).

For the compound `O=c1oc2c/c(=C\c3ccc([N+](=O)[O-])cc3)c(=O)c3cccc1c3-2`, the GI50 is > 100 µM (inactive) in [1]; 54.6 µM (inactive) in [2]; 36.8 µM (inactive) in assay [4]; > 100 µM (inactive) in assay [5]; > 100 µM (inactive) in assay [6]; > 100 µM (inactive) in assay [7]. The GI50 in assay [8] is > 100 µM (inactive); in assay [9] it was greater than 100 µM; in assay [10], 52 µM (inactive); in assay [11] it was > 100 µM (inactive); in assay [12] it was > 100 µM (inactive); in assay [13], > 100 µM (inactive). Besides, the GI50 in [14], in assay [15], in assay [20], in [17], in assay [18] and in [19] was > 100 µM (inactive) each time.

Regarding `Cn1cc(NC(=O)Nc2cc(C(=O)Nc3cc(C(=O)Nc4ccc5cc(S(=O)(=O)O)cc(S(=O)(=O)O)c5c4)n(C)c3)n(C)c2)cc1C(=O)Nc1cc(C(=O)Nc2ccc3cc(S(=O)(=O)O)cc(S(=O)(=O)O)c3c2)n(C)c1`, the GI50 in assay [1] is > 100 µM (inactive); in assay [2], > 100 µM (inactive); in [4] it was > 100 µM (inactive); in assay [5], > 100 µM (inactive); in assay [6], 38.5 µM (inactive); in [7], > 100 µM (inactive). Besides, the GI50 in [8] is > 100 µM (inactive); in assay [9], greater than 100 µM; in [10] it was 90.8 µM (inactive); in assay [11], > 100 µM (inactive); in [12] it was > 100 µM (inactive); in assay [13], 91.4 µM (inactive). Moreover, the GI50 in [14], in assay [15], in assay [20], in assay [16], in assay [17] and in [18] was > 100 µM (inactive) in each case. The GI50 in assay [19] is > 100 µM (inactive).

In the case of `OCCCN(CCc1ccc(Cl)c(Cl)c1)CCN1CCCC1`, the GI50 in assay [1] was 24 µM (inactive); in [2], 40.2 µM (inactive); in assay [3] it was > 100 µM (inactive); in [4], 30 µM (inactive); in assay [6], > 100 µM (inactive); in [7], 18 µM (inactive). Besides, the GI50 in assay [8] was 47.9 µM (inactive); in assay [9], 39.5 µM; in assay [10] it was > 100 µM (inactive); in assay [11], 24.7 µM (inactive); in [12], > 100 µM (inactive); in assay [13] it was 17.4 µM (inactive). The GI50 in assay [14] is 32.5 µM (inactive); in assay [15], 22.3 µM (inactive); in [20], 39.2 µM (inactive); in [16], > 100 µM (inactive); in [17], 48.9 µM (inactive); in assay [19], > 100 µM (inactive).

As for `O=[N+]([O-])c1cccc(-c2ncnc(-c3cccc([N+](=O)[O-])c3)n2)c1`, the GI50 is 27.4 µM (inactive) in assay [1]; 32.2 µM (inactive) in assay [2]; 18.4 µM (inactive) in [3]; > 100 µM (inactive) in [5]; > 100 µM (inactive) in assay [6]; > 100 µM (inactive) in assay [7]. Besides, the GI50 in assay [8] is > 100 µM (inactive); in assay [10], 19.5 µM (inactive); in assay [11], > 100 µM (inactive); in assay [12], > 100 µM (inactive); in [13], > 100 µM (inactive); in assay [14], 34.9 µM (inactive). Also, the GI50 in assay [15] is > 100 µM (inactive); in assay [20], > 100 µM (inactive); in assay [17], > 100 µM (inactive); in assay [18], > 100 µM (inactive); in [19], 27.1 µM (inactive).

Turning to `CN(C)Cc1cc(/N=N/c2ccccc2)ccc1O`, the GI50 in assay [1] is 65.5 µM (inactive); in assay [2], 30.8 µM (inactive); in assay [3] it was 62.4 µM (inactive); in [4], 42.3 µM (inactive); in assay [5], 53 µM (inactive); in [6], 40 µM (inactive). For the same compound, the GI50 is 34.1 µM (inactive) in assay [7]; > 100 µM (inactive) in [8]; 43.1 µM in assay [9]; 23.2 µM (inactive) in assay [10]; 32.4 µM (inactive) in [11]; 32.5 µM (inactive) in assay [12]. Moreover, the GI50 is 38.9 µM (inactive) in assay [13]; 32.9 µM (inactive) in assay [14]; 34.8 µM (inactive) in assay [15]; 33.9 µM (inactive) in assay [20]; 75.7 µM (inactive) in assay [17]; 15.1 µM (inactive) in assay [18].

For `CC1(C)[C@@H]2CC[C@]1(C)[C@H](OC(=O)CSC#N)C2`, the GI50 in assay [1] was 18.3 µM (inactive); in [2], > 100 µM (inactive); in assay [3] it was > 100 µM (inactive); in assay [5] it was > 100 µM (inactive); in assay [6], > 100 µM (inactive); in assay [7], > 100 µM (inactive). The GI50 in assay [8] was 40.4 µM (inactive); in assay [9] it was greater than 100 µM; in assay [10] it was > 100 µM (inactive); in assay [11], > 100 µM (inactive); in [12], > 100 µM (inactive); in [13] it was 47.1 µM (inactive). The GI50 in assay [14] was > 100 µM (inactive); in [15], 46.2 µM (inactive); in assay [16], > 100 µM (inactive); in assay [17], > 100 µM (inactive); in assay [18], > 100 µM (inactive); in assay [19] it was > 100 µM (inactive).
